Experimental findings from the supplement of paper PMC10307832 are described below.

Test in all cases: relative viability (nuclei count vs DMSO), 5 days (fraction); higher = more cells survive
Compound in assay [1]: C[C@]12O[C@H](C[C@]1(O)CO)n1c3ccccc3c3c4c(c5c6ccccc6n2c5c31)CNC4=O [Lestaurtinib] + Cc1cc(Nc2cc(N3CCN(C)CC3)nc(Sc3ccc(NC(=O)C4CC4)cc3)n2)n[nH]1 [Tozasertib] (partner 0.1 µM)
In a few lines: (§1)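 Lung cancer cell lines in 1536-well plates were dosed by pin tool the day after seeding, either with one drug alone or with a fixed anchor-drug dose plus five library-drug doses (not always all listed) in √10 steps. After 5 days, cells were fixed and their nuclei stained in one step (final 0.05% Triton X-100, 1% formaldehyde, 1 ug/ml Hoechst), then counted on 4× images. Relative viability is the nuclei count in treated wells divided by that in vehicle wells. Values are medians of duplicate plates.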

Compound in the assay “TPCA-1 + Lapatinib”: C1=CC(=CC=C1C2=CC(=C(S2)NC(=O)N)C(=O)N)F [TPCA-1] + CS(=O)(=O)CCNCc1ccc(-c2ccc3ncnc(Nc4ccc(OCc5cccc(F)c5)c(Cl)c4)c3c2)o1 [Lapatinib] (partner 2 µM)
In a few lines:
as §1

Compound in assay [2]: C[C@]12O[C@H](C[C@]1(O)CO)n1c3ccccc3c3c4c(c5c6ccccc6n2c5c31)CNC4=O [Lestaurtinib] + C[C@]1(O)C[C@@H](c2nc(-c3ccc4ccc(-c5ccccc5)nc4c3)c3c(N)nccn32)C1 [Linsitinib] (partner 1 µM)
The gist of the method: as §1

Compound in assay [3]: C1/C(=C\C2=CC=CS2)/C(=O)/C(=C/C3=CC=CS3)/C1 + C[C@@H](Oc1cc(-c2cnn(C3CCNCC3)c2)cnc1N)c1c(Cl)ccc(F)c1Cl [Crizotinib] (partner 1 µM)
The gist of the method:
as §1

For the cell line NCI-H522, the relative viability in assay [1] (first compound 0.005 µM) was found to be 0.571; in assay [1] (first compound 0.01581 µM), 0.536; in assay [1] (first compound 0.05 µM), 0.627; in assay [1] (first compound 0.1581 µM), 0.528; in assay [1] (first compound 0.5 µM), 0.496.

Regarding NCI-H1299, the relative viability is 0.962 with TPCA-1 + Lapatinib (first compound 0.04 µM); 0.979 with TPCA-1 + Lapatinib (first compound 0.1265 µM); 0.95 in the assay with TPCA-1 + Lapatinib (first compound 0.4 µM); 0.963 with TPCA-1 + Lapatinib (first compound 1.265 µM); 0.949 in the assay with TPCA-1 + Lapatinib (first compound 4 µM); 0.985 in assay [2] (first compound 0.005 µM). The relative viability in assay [2] (first compound 0.01581 µM) was 1.02; in assay [2] (first compound 0.05 µM), 0.688; in assay [2] (first compound 0.1581 µM), 0.504; in assay [2] (first compound 0.5 µM) it was 0.499; in assay [3] (first compound 0.2 µM), 0.958; in assay [3] (first compound 0.6325 µM) it was 0.976. In addition, the relative viability in assay [3] (first compound 2 µM) was 0.928; in assay [3] (first compound 6.325 µM), 0.903; in assay [3] (first compound 20 µM) it was 0.589.

On to NCI-H1395, for which the relative viability with TPCA-1 + Lapatinib (first compound 0.04 µM) is 1.09; with TPCA-1 + Lapatinib (first compound 0.1265 µM) it was 1.06; with TPCA-1 + Lapatinib (first compound 0.4 µM) it was 1.02; with TPCA-1 + Lapatinib (first compound 1.265 µM), 0.935; with TPCA-1 + Lapatinib (first compound 4 µM) it was 0.75; in assay [2] (first compound 0.005 µM), 1.07. In addition, the relative viability stood at 1.2 in assay [2] (first compound 0.01581 µM); 0.836 in assay [2] (first compound 0.05 µM); 0.894 in assay [2] (first compound 0.1581 µM); 0.421 in assay [2] (first compound 0.5 µM); 0.773 in assay [1] (first compound 0.005 µM); 0.791 in assay [1] (first compound 0.01581 µM). In addition, the relative viability in assay [1] (first compound 0.05 µM) is 0.64; in assay [1] (first compound 0.1581 µM), 0.721; in assay [1] (first compound 0.5 µM), 0.46.

With NCI-H1563, the relative viability with TPCA-1 + Lapatinib (first compound 0.04 µM) was 1.08; in the assay with TPCA-1 + Lapatinib (first compound 0.1265 µM) it was 0.943; in the assay with TPCA-1 + Lapatinib (first compound 0.4 µM) it was 0.919; with TPCA-1 + Lapatinib (first compound 1.265 µM) it was 0.736; with TPCA-1 + Lapatinib (first compound 4 µM), 0.795; in assay [2] (first compound 0.005 µM), 1.25. Further, the relative viability was found to be 1.17 in assay [2] (first compound 0.01581 µM); 1.16 in assay [2] (first compound 0.05 µM); 1.22 in assay [2] (first compound 0.1581 µM); 0.736 in assay [2] (first compound 0.5 µM); 0.843 in assay [3] (first compound 0.2 µM); 0.887 in assay [3] (first compound 0.6325 µM). Moreover, the relative viability is 0.899 in assay [3] (first compound 2 µM), 0.832 in assay [3] (first compound 6.325 µM) and 0.987 in assay [3] (first compound 20 µM).

As for NCI-H1623, the relative viability in assay [1] (first compound 0.005 µM) was found to be 0.42; in assay [1] (first compound 0.01581 µM) it was 0.722; in assay [1] (first compound 0.05 µM), 0.415; in assay [1] (first compound 0.1581 µM), 0.418; in assay [1] (first compound 0.5 µM) it was 0.424.

NCI-H1648: the relative viability in assay [1] (first compound 0.005 µM) came out at 0.377; in assay [1] (first compound 0.01581 µM), 0.649; in assay [1] (first compound 0.05 µM), 0.391; in assay [1] (first compound 0.1581 µM) it was 0.487; in assay [1] (first compound 0.5 µM), 0.49.

As for NCI-H1650, the relative viability with TPCA-1 + Lapatinib (first compound 0.04 µM) is 0.945; with TPCA-1 + Lapatinib (first compound 0.1265 µM), 0.713; with TPCA-1 + Lapatinib (first compound 0.4 µM) it was 0.921; with TPCA-1 + Lapatinib (first compound 1.265 µM) it was 0.791; with TPCA-1 + Lapatinib (first compound 4 µM), 0.219; in assay [3] (first compound 0.2 µM) it was 1.16. Also, the relative viability in assay [3] (first compound 0.6325 µM) was 1.02; in assay [3] (first compound 2 µM), 1.14; in assay [3] (first compound 6.325 µM), 0.605; in assay [3] (first compound 20 µM) it was 0.923; in assay [1] (first compound 0.005 µM), 0.469; in assay [1] (first compound 0.01581 µM), 0.526. The values for the relative viability in assay [1] (first compound 0.05 µM), in assay [1] (first compound 0.1581 µM) and in assay [1] (first compound 0.5 µM) were 0.343, 0.371 and 0.313, respectively.

NCI-H1703: the relative viability with TPCA-1 + Lapatinib (first compound 0.04 µM) is 1.07; with TPCA-1 + Lapatinib (first compound 0.1265 µM), 0.902; with TPCA-1 + Lapatinib (first compound 0.4 µM), 1.18; with TPCA-1 + Lapatinib (first compound 1.265 µM) it was 0.805; with TPCA-1 + Lapatinib (first compound 4 µM), 0.988; in assay [2] (first compound 0.005 µM), 0.513. Besides, the relative viability in assay [2] (first compound 0.01581 µM) came out at 0.508; in assay [2] (first compound 0.05 µM), 0.562; in assay [2] (first compound 0.1581 µM), 0.164; in assay [2] (first compound 0.5 µM) it was 0.149; in assay [3] (first compound 0.2 µM) it was 0.94; in assay [3] (first compound 0.6325 µM), 1.12. Also, the results for the relative viability in assay [3] (first compound 2 µM), in assay [3] (first compound 6.325 µM) and in assay [3] (first compound 20 µM) were 0.919, 0.585 and 0.737, respectively.

Consider NCI-H1792, for which the relative viability with TPCA-1 + Lapatinib (first compound 0.04 µM) worked out at 0.964; with TPCA-1 + Lapatinib (first compound 0.1265 µM) it was 0.893; with TPCA-1 + Lapatinib (first compound 0.4 µM), 0.843; with TPCA-1 + Lapatinib (first compound 1.265 µM) it was 0.9; with TPCA-1 + Lapatinib (first compound 4 µM), 0.455; in assay [2] (first compound 0.005 µM) it was 0.757. The relative viability in assay [2] (first compound 0.01581 µM) amounted to 0.56; in assay [2] (first compound 0.05 µM) it was 0.386; in assay [2] (first compound 0.1581 µM) it was 0.243; in assay [2] (first compound 0.5 µM) it was 0.144; in assay [3] (first compound 0.2 µM) it was 0.991; in assay [3] (first compound 0.6325 µM), 0.998. Besides, the relative viability amounted to 1.07 in assay [3] (first compound 2 µM) and 1.06 in assay [3] (first compound 20 µM).

NCI-H1793: the relative viability is 1.05 with TPCA-1 + Lapatinib (first compound 0.04 µM); 0.669 with TPCA-1 + Lapatinib (first compound 0.1265 µM); 0.837 with TPCA-1 + Lapatinib (first compound 0.4 µM); 0.929 with TPCA-1 + Lapatinib (first compound 1.265 µM); 0.354 with TPCA-1 + Lapatinib (first compound 4 µM); 0.897 in assay [2] (first compound 0.005 µM). The relative viability in assay [2] (first compound 0.01581 µM) is 0.816; in assay [2] (first compound 0.05 µM), 0.467; in assay [2] (first compound 0.1581 µM) it was 0.876; in assay [2] (first compound 0.5 µM), 0.566; in assay [1] (first compound 0.005 µM), 0.335; in assay [1] (first compound 0.01581 µM) it was 0.279. The values for the relative viability in assay [1] (first compound 0.05 µM), in assay [1] (first compound 0.1581 µM) and in assay [1] (first compound 0.5 µM) were 0.347, 0.265 and 0.255, respectively.

NCI-H2170: the relative viability with TPCA-1 + Lapatinib (first compound 0.04 µM) worked out at 0.263; with TPCA-1 + Lapatinib (first compound 0.1265 µM), 0.272; with TPCA-1 + Lapatinib (first compound 0.4 µM), 0.261; with TPCA-1 + Lapatinib (first compound 1.265 µM), 0.284; with TPCA-1 + Lapatinib (first compound 4 µM), 0.248; in assay [3] (first compound 0.2 µM) it was 1.29. For the same cell line, the relative viability came out at 1.29 in assay [3] (first compound 0.6325 µM); 1.26 in assay [3] (first compound 2 µM); 1.03 in assay [3] (first compound 6.325 µM); 1.07 in assay [3] (first compound 20 µM); 0.72 in assay [1] (first compound 0.005 µM); 0.848 in assay [1] (first compound 0.01581 µM). Besides, the relative viability in assay [1] (first compound 0.05 µM) came to 0.696; in assay [1] (first compound 0.1581 µM), 0.45; in assay [1] (first compound 0.5 µM), 0.219.

NCI-H2342: the relative viability in assay [1] (first compound 0.005 µM) was found to be 0.528; in assay [1] (first compound 0.01581 µM) it was 0.502; in assay [1] (first compound 0.05 µM) it was 0.538; in assay [1] (first compound 0.1581 µM) it was 0.418; in assay [1] (first compound 0.5 µM), 0.418.

For SW 900, the relative viability in assay [1] (first compound 0.005 µM) was 0.462; in assay [1] (first compound 0.01581 µM), 0.683; in assay [1] (first compound 0.05 µM), 0.503; in assay [1] (first compound 0.1581 µM), 0.703; in assay [1] (first compound 0.5 µM), 0.538.
